Values quoted from earlier work in patent US20050261194A1, “Use of thymulin-like peptides for making pain-relieving medicines” (priority 2001, published 2005).
Where no end group is shown, it is not given here. [ ]: non-standard residue; d: D form. pGlu = O=C1CC[C@@H](C(=O)O)N1

Tested on: rat
Conditions: cited from earlier work

Substance: PyroGlu-Ala-Lys-Ser-Gln-Gly-Gly-Ser-Asn ([pGlu]AKSQGGSN) [thymuline]
- effect on hyperalgesia at higher doses (micrograms in the rat, 50-100 μg/kg): reduces hyperalgesia
- effect on hyperalgesia at low dose (nanograms in the rat, 0.2 to 20 μg/kg): induces hyperalgesia
